# PubChem BioAssay (NCI)
#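 Cells were grown in 96-well plates and exposed to each compound for 48 hours at five concentrations; endpoints were interpolated linearly between bracketing concentrations, or set to the highest concentration if not reached. GI50 is the concentration that inhibits growth by half. TGI is the concentration that stops growth completely.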
# Columns and labels:
# Experiment in all cases: NCI tumour cell line growth inhibition, 48 h
# [1] = test system: SF-295 CNS
# [2] = test system: U251 CNS
# [3] = test system: OVCAR-3 ovarian
# [4] = test system: HL-60(TB) leukemia
# [5] = test system: HOP-92 NSCLC
# [6] = test system: NCI/ADR-RES ovarian
# [7] = test system: UO-31 renal
# [8] = test system: SF-539 CNS
# [9] = test system: LOX IMVI melanoma
# [10] = test system: MOLT-4 leukemia
SMILES,GI50 [1] [µM],TGI [1] [µM],GI50 [2] [µM],TGI [2] [µM],GI50 [3] [µM],TGI [3] [µM],GI50 [4] [µM],TGI [4] [µM],GI50 [5] [µM],TGI [5] [µM],GI50 [6] [µM],TGI [6] [µM],GI50 [7] [µM],TGI [7] [µM],GI50 [8] [µM],TGI [8] [µM],TGI [9] [µM],TGI [10] [µM],GI50 [9] [µM],GI50 [10] [µM]
Cn1cc(-c2csc(-c3cn(C)c4ccc(F)cc34)n2)c2cnccc21,1.71,3.23,1.8,3.23,1.95,3.48,1.93,3.87,1.64,3.26,2.03,4.02,1.64,3.09,1.85,3.35,–,–,–,–
C[P+](C)(C)c1ccccc1,–,> 100,–,> 100,–,> 100,–,> 100,–,> 100,–,–,–,> 100,–,> 100,> 100,> 100,–,–
CN(C)CCNc1nc2ccccc2c2c(=O)c3cc(F)ccc3sc12,1.76,3.22,–,–,1.84,3.33,–,–,–,–,1.63,3.06,1.4,2.73,1.67,3.07,3.03,–,1.63,–
Cc1ccc(N2C(=O)N(c3ccc(C)cc3)C3(SC=NN3C)C2=O)cc1 (stereo not given),–,> 100,–,> 100,–,> 100,–,> 100,–,> 100,–,–,–,> 100,–,> 100,> 100,> 100,–,–
C1COCCSC2=C(SCCO1)SC(=C1SC3=C(SCCOCCOCCS3)S1)S2,–,> 100,–,> 100,–,> 100,–,> 100,–,> 100,–,–,–,> 100,–,> 100,> 100,> 100,–,–
CCc1cccc(C)c1NC(=O)CC1C(=O)Nc2ccccc2S1=O (stereo not given),–,97.6,–,55.4,–,> 100,–,74.9,–,> 100,–,–,–,> 100,–,79.2,> 100,> 100,–,–
NCCCn1c2c(c3ccccc3c1=O)C(=O)c1ccccc1-2,0.0709,0.55,0.0888,1.42,0.721,5.25,–,–,2.6,19.1,0.145,2.68,0.248,16.5,0.104,1.13,0.702,0.7,0.0649,0.0363
CSc1ccc2c(cc1=O)[C@@H](NC(=O)c1cc(O)c(O)c(O)c1)CCc1cc(O)c(O)c(O)c1-2,–,43.6,–,37.7,–,70,–,40.7,–,–,–,–,–,83.8,–,52.3,–,45.6,–,–
CC(=O)[CH-]C(=O)c1ccccc1.CC(=O)[CH-]C(=O)c1ccccc1.O=S(=O)([O-])c1cc([O-])c2c([O-])cc(S(=O)(=O)[O-])cc2c1.[Na+].[Ti+4],55.7,> 100,97.8,> 100,> 100,> 100,> 100,> 100,–,–,–,–,> 100,> 100,83.3,> 100,> 100,> 100,> 100,34.3
